Laboratory results reported in patent US9120795B2, “Crystalline form of a β-lactamase inhibitor” (Cubist Pharmaceuticals, Inc., priority 2013, dated 2015).

Key:
Pae clinical, KPC-2 = test: Synergy MIC (sMIC) assay; type: cell-based, Pseudomonas aeruginosa; details: KPC-2, clinical Pae; CXA-101 at 4 μg/mL
Procedure: (§1) The synergy MIC (sMIC) assay determines the concentration of the BLI required to potentiate the activity of a fixed concentration of a β-lactam antibiotic against β-lactamase producing bacterial strains. The experimental protocol was performed according to Clinical and Laboratory Standards Institute (CLSI) guidelines with modifications as described below (CLSI guidelines can be derived from the CLSI document M07-A9 published in January 2012: “Methods for Dilution Antimicrobial Susceptibility Tests for Bacteria That Grow Aerobically; Approved Standard-Ninth Edition”). […]
(§2) Plates were incubated for 18-20 hours at 37° C. with aeration (200 rpm). Following incubation, growth was confirmed visually placing plates over a viewing apparatus (stand with a mirror underneath) and then OD600 was measured using a SpectraMax 340PC384 plate reader (Molecular Devices, Sunnyvale, Calif.). Growth was defined as turbidity that could be detected with the naked eye or achieving minimum OD600 of 0.1. sMIC values were defined as the lowest concentration producing no visible turbidity. […]

[1] = system: Kpn.571 (TEM-26, clinical); test: Standard BLI potentiation MIC assay; type: cell-based; details: Klebsiella pneumoniae, read-out: MIC of β-lactam with BLI
Procedure: (§3) The experimental protocol was performed according to Clinical and Laboratory Standards Institute (CLSI) guidelines with modifications as described below (CLSI guidelines can be derived from the CLSI document M07-A9 published in January 2012: “Methods for Dilution Antimicrobial Susceptibility Tests for Bacteria That Grow Aerobically; Approved Standard-Ninth Edition”).
(§4) To prepare for MIC testing, frozen glycerol stocks of clinical isolates (Klebsiella pneumoniae, Eschericia coli, Enterobacter spp, Citrobacter spp, or Pseudomonas aeruginosa) were used to streak for isolated colonies on rich, non-selective, tryptic soy agar containing 5% sheep's blood (TSAB). Frozen glycerol stocks of laboratory engineered, isogenic E. coli strains, which contain cloned β-lactamase expressing plasmids were used to streak for isolated colonies on rich, selective LB agar supplemented with 25 μg/mL tetracycline to maintain the plasmid. All strains were incubated at 37° C. for 18-24 hrs.
(§5) On the day of testing, primary cultures were started by scraping off 5-10 colonies from the TSAB plates containing clinical strains or the tetracycline supplemented LB plates containing engineered strains. The clinical strain material was suspended in ˜5 mL of cation adjusted Mueller Hinton Broth (CAMHB) in 14 mL culture tubes. The engineered strain material was suspended in CAMHB (supplemented with 25 μg/mL tetracycline) in 14 mL culture tubes. All strains were incubated at 37° C. with aeration (200 rpm) for ˜2 hrs until the optical density at 600 nm (OD600) was ≧0.1.
(§6) The two compound components of the assay were each diluted in CAMHB and added to the 96-well broth microdilution assay plates. 50 μL of the β-lactam was added to each well of the assay plate in 2-fold dilutions with final concentrations ranging from 128 to 0.13 μg/mL. 25 μL of the BLI compound was added to all wells in the broth microdilution plates at a final concentration of 4 μg/mL. Inoculum cultures were prepared by standardizing the primary cultures to OD600=0.1 and then adding 20 μL of the adjusted primary culture per 1 mL CAMHB for clinical strains or CAMHB (supplemented with tetracycline at 100 μg/mL) for engineered strains, so that the final inoculum density was ˜10^5 colony forming units per milliliter. Diluted inoculum cultures were used to inoculate 25 μL per well in 96-well broth microdilution assay plates. The final volume of each well was 100 μL and contained a β-lactam at different concentrations, a BLlcompound at 4 μg/mL concentration, the bacterial culture at an OD600 of approximately 0.001 and when necessary tetracycline at 25 μg/mL.
(§7) Plates were incubated for 18-20 hours at 37° C. with aeration (200 rpm). Following incubation, growth was confirmed visually placing plates over a viewing apparatus (stand with a mirror underneath) and then OD600 was measured using a SpectraMax 340PC384 plate reader (Molecular Devices, Sunnyvale, Calif.). Growth was defined as turbidity that could be detected with the naked eye or achieving minimum OD600 of 0.1. MIC values were defined as the lowest concentration producing no visible turbidity.

[2] = system: Kpn.2783 (CTX-M-15, SHV+, TEM+, clinical); test: Standard BLI potentiation MIC assay; type: cell-based; details: Klebsiella pneumoniae, read-out: MIC of β-lactam with BLI
Procedure: as §3, §4, §5, §6, §7

[3] = system: Pae.2863 (AmpC de-repress, clinical); test: Standard BLI potentiation MIC assay; type: cell-based; details: Pseudomonas aeruginosa, read-out: MIC of β-lactam with BLI
Procedure: as §3, §4, §5, §6, §7

[4] = system: Kpn.2926 (CTX-M-15, OXA-48, clinical); test: Standard BLI potentiation MIC assay; type: cell-based; details: Klebsiella pneumoniae, read-out: MIC of β-lactam with BLI
Procedure: as §3, §4, §5, §6, §7

[5] = system: Pae.2757 (AmpC over-expn, clinical); test: Standard BLI potentiation MIC assay; type: cell-based; details: Pseudomonas aeruginosa, read-out: MIC of β-lactam with BLI
Procedure: as §3, §4, §5, §6, §7

[6] = system: Kpn.2490 (KPC-3, SHV+, TEM+, clinical); test: Standard BLI potentiation MIC assay; type: cell-based; details: Klebsiella pneumoniae, read-out: MIC of β-lactam with BLI
Procedure: as §3, §4, §5, §6, §7

Kpn clinical, KPC-2 = test: Synergy MIC (sMIC) assay; type: cell-based, Klebsiella pneumoniae; details: KPC-2, clinical Kpn; CXA-101 at 4 μg/mL
Procedure: as §1, §2

O=C1N2C[C@@H](CC[C@H]2c2nnco2)N1OS(=O)(=O)[O-].[Na+] [Hydrate 1, sodium (2S,5R)-2-(1,3,4-oxadiazol-2-yl)-7-oxo-1,6-diazabicyclo[3.2.1]octan-6-yl sulfate]
sMIC (Pae clinical, KPC-2): C (C = 4-8 μg/mL) | MIC [1]: 0.25 to 0.5 µg/mL | MIC [2]: 0.25 to 0.5 µg/mL | MIC [3]: 1 to 2 µg/mL | MIC [4]: 1 to 2 µg/mL | MIC [5]: 1 to 2 µg/mL | MIC [6]: 0.25 to 0.5 µg/mL | sMIC (Kpn clinical, KPC-2): C (C = 4-8 μg/mL)
